According to patent US20150209327A1, “METHODS FOR THE TREATMENT OF OBESITY USING APREMILAST” (Celgene Corporation, priority 2014, published 2015):
Several values for one entry are separate records, joined by “and”; a condition that tells them apart may be missing. Identical values can stand only once.

Experiment: Psoriatic Arthritis (PsA) Phase 3 Data Pool: weight change
Format: in vivo, human
Settings: for Weight % Change Category 0%, n (%) / Weight % Change Category <−20%, n (%) / Weight % Change Category >0% to ≦5%, n (%) / Weight % Change Category >5% to ≦10%, n (%) / Weight % Change Category >10% to ≦20%, n (%) / Weight % Change Category >20%, n (%) / Weight % Change Category ≧−5% to <0%, n (%) / Weight % Change Category ≧−10% to <−5%, n (%) / Weight % Change Category ≧−20% to <−10%, n (%): Subjects as Treated; for observed weight loss of greater than 10%, subjects n (%) / percentage of subjects with weight change of -10% to <−5%: Weeks 0 to 16
Text: Apremilast has shown benefit of weight loss in both Phase 2 and Phase 3 Psoriatic Arthritis (PSA) and Psoriasis (PSOR) trials.

[1] = 20 mg BID, Apremilast-exposure Period, m = 943
[2] = 20 mg BID, End of Period (APR, apremilast exposure), Subjects as Initially Treated at Week 0
[3] = 20 mg BID, End of Period (PBC, Week 24), Subjects as Initially Treated at Week 0
[4] = 20 mg BID, End of Period (apremilast exposure), Apremilast Subjects as Treated
[5] = 20 mg BID, Week 52, Apremilast Subjects as Treated
[6] = 20 mg BID, Week 78, Apremilast Subjects as Treated
[7] = 30 mg BID, Apremilast-exposure Period, m = 944
[8] = 30 mg BID, End of Period (APR, apremilast exposure), Subjects as Initially Treated at Week 0
[9] = 30 mg BID, End of Period (PBC, Week 24), Subjects as Initially Treated at Week 0
[10] = 30 mg BID, End of Period (apremilast exposure), Apremilast Subjects as Treated
[11] = 30 mg BID, Week 52, Apremilast Subjects as Treated
[12] = 30 mg BID, Week 78, Apremilast Subjects as Treated

For `CCOc1cc([C@@H](CS(C)(=O)=O)N2C(=O)c3cccc(NC(C)=O)c3C2=O)ccc1OC` [Apremilast, (+)-2-[1-(3-ethoxy-4-methoxyphenyl)-2-methylsulfonylethyl]-4-acetylaminoisoindoline-1,3-dione], the “weight decrease reported, subjects n (%)” value (20 mg BID) was 10 (1.0%) n (%), the “weight loss of greater than 10%, subjects n (%)” value (20 mg BID, Apremilast-exposure Period) was 42 (4.5%) n (%) and the “Weight % Change Category 0%, n (%)” value [1] was 74 (7.8) n (%). The “Weight % Change Category <−20%, n (%)” value [1] was 1 (0.1) n (%), the “Weight % Change Category >0% to ≦5%, n (%)” value [1] was 280 (29.7) n (%) and the “Weight % Change Category >5% to ≦10%, n (%)” value [1] was 42 (4.5) n (%). The “Weight % Change Category >10% to ≦20%, n (%)” value [1] was 14 (1.5) n (%), the “Weight % Change Category >20%, n (%)” value [1] was 0 n (%) and the “Weight % Change Category ≧−5% to <0%, n (%)” value [1] was 393 (41.7) n (%). The “Weight % Change Category ≧−10% to <−5%, n (%)” value [1] was 98 (10.4) n (%), the “Weight % Change Category ≧−20% to <−10%, n (%)” value [1] was 41 (4.3) n (%) and the “Change From Baseline (kg) Median (Min, Max)” value [2] was −0.60 (−44.3, 14.0) kg. The “Weight, kg End of Period Mean ± SD” value [2] was 84.38 ± 20.636 kg, the “Change From Baseline (kg) Mean ± SD” value (20 mg BID, End of Period (APR, apremilast exposure), Subjects as Initially Treated at Week 0, listed as APR) was -1.13 kg and -1.13 ± 4.491 kg and the “Change From Baseline (kg) Median (Min, Max)” value [3] was −0.50 (−17.2, 11.5) kg. The “Weight, kg End of Period Mean ± SD” value [3] was 84.47 ± 20.734 kg, the “Change From Baseline (kg) Mean ± SD” value (20 mg BID, End of Period (PBC, Week 24), Subjects as Initially Treated at Week 0, listed as APR) was -1.05 kg and -1.05 ± 3.366 kg and the “Change From Baseline (kg) Mean ± SD” value [4] was -1.16 ± 4.255 kg. For the same molecule, the “Change From Baseline (kg) Median (Min, Max)” value [4] was −0.50 (−44.3, 14.0) kg, the “Weight, kg Time Point Mean ± SD” value [4] was 84.65 ± 20.541 kg and the “Change From Baseline (kg) Median (Min, Max)” value [5] was −1.00 (−26.0, 12.5) kg. For the same molecule, the “Weight, kg Time Point Mean ± SD” value [5] was 84.89 ± 20.190 kg, the “Change From Baseline (kg) Mean ± SD” value (20 mg BID, Week 52, Apremilast Subjects as Treated, listed as APR) was -1.25 kg and -1.25 ± 4.223 kg and the “Change From Baseline (kg) Median (Min, Max)” value [6] was −1.00 (−44.3, 14.0) kg. For the same molecule, the “Weight, kg Time Point Mean ± SD” value [6] was 86.63 ± 19.721 kg, the “Change From Baseline (kg) Mean ± SD” value (20 mg BID, Week 78, Apremilast Subjects as Treated, listed as APR) was -1.70 kg and -1.70 ± 6.192 kg and the “Weight % Change Category 0%, n (%)” value (20 mg BID, Weeks 0-16, m = 868) was 122 (14.1) n (%). The “Weight % Change Category <−20%, n (%)” value (20 mg BID, Weeks 0-16, m = 868) was 0 n (%), the “Weight % Change Category >0% to ≦5%, n (%)” value (20 mg BID, Weeks 0-16, m = 868) was 260 (30.0) n (%) and the “Weight % Change Category >5% to ≦10%, n (%)” value (20 mg BID, Weeks 0-16, m = 868) was 13 (1.5) n (%). For the same molecule, the “Weight % Change Category >10% to ≦20%, n (%)” value (20 mg BID, Weeks 0-16, m = 868) was 1 (0.1) n (%), the “Weight % Change Category >20%, n (%)” value (20 mg BID, Weeks 0-16, m = 868) was 0 n (%) and the “Weight % Change Category ≧−5% to <0%, n (%)” value (20 mg BID, Weeks 0-16, m = 868) was 431 (49.7) n (%). The “Weight % Change Category ≧−10% to <−5%, n (%)” value (20 mg BID, Weeks 0-16, m = 868) was 35 (4.0) n (%), the “Weight % Change Category ≧−20% to <−10%, n (%)” value (20 mg BID, Weeks 0-16, m = 868) was 6 (0.7) n (%) and the “observed weight loss of greater than 10%, subjects n (%)” value (20 mg BID) was 6 (0.7%) n (%). For the same molecule, the “percentage of subjects with weight change of -10% to <−5%” value (20 mg BID) was 4.0%, the “weight decrease reported, subjects n (%)” value (30 mg BID) was 15 (1.5%) n (%) and the “weight loss of greater than 10%, subjects n (%)” value (30 mg BID, Apremilast-exposure Period) was 36 (3.8%) n (%). The “Weight % Change Category 0%, n (%)” value [7] was 71 (7.5) n (%), the “Weight % Change Category <−20%, n (%)” value [7] was 0 n (%) and the “Weight % Change Category >0% to ≦5%, n (%)” value [7] was 272 (28.8) n (%). The “Weight % Change Category >5% to ≦10%, n (%)” value [7] was 46 (4.9) n (%), the “Weight % Change Category >10% to ≦20%, n (%)” value [7] was 8 (0.8) n (%) and the “Weight % Change Category >20%, n (%)” value [7] was 4 (0.4) n (%). For the same molecule, the “Weight % Change Category ≧−5% to <0%, n (%)” value [7] was 387 (41.0) n (%), the “Weight % Change Category ≧−10% to <−5%, n (%)” value [7] was 120 (12.7) n (%) and the “Weight % Change Category ≧−20% to <−10%, n (%)” value [7] was 36 (3.8) n (%). For the same molecule, the “Change From Baseline (kg) Median (Min, Max)” value [8] was −1.00 (−23.0, 17.1) kg, the “Weight, kg End of Period Mean ± SD” value [8] was 83.61 ± 19.766 kg and the “Change From Baseline (kg) Mean ± SD” value (30 mg BID, End of Period (APR, apremilast exposure), Subjects as Initially Treated at Week 0, listed as APR) was -1.26 kg and -1.26 ± 4.120 kg. The “Change From Baseline (kg) Median (Min, Max)” value [9] was −0.60 (−13.7, 11.4) kg, the “Weight, kg End of Period Mean ± SD” value [9] was 83.90 ± 19.670 kg and the “Change From Baseline (kg) Mean ± SD” value (30 mg BID, End of Period (PBC, Week 24), Subjects as Initially Treated at Week 0, listed as APR) was -0.97 kg and -0.97 ± 3.016 kg. The “Change From Baseline (kg) Mean ± SD” value [10] was -0.96 ± 5.534 kg, the “Weight, kg Time Point Mean ± SD” value [10] was 84.09 ± 20.309 kg and the “Change From Baseline (kg) Median (Min, Max)” value [11] was −1.30 (−23.0, 11.8) kg. The “Weight, kg Time Point Mean ± SD” value [11] was 84.16 ± 19.253 kg, the “Change From Baseline (kg) Mean ± SD” value (30 mg BID, Week 52, Apremilast Subjects as Treated, listed as APR) was -1.68 kg and -1.68 ± 4.049 kg and the “Change From Baseline (kg) Median (Min, Max)” value [12] was −2.00 (−16.0, 17.1) kg. For the same molecule, the “Weight, kg Time Point Mean ± SD” value [12] was 83.53 ± 18.202 kg, the “Change From Baseline (kg) Mean ± SD” value (30 mg BID, Week 78, Apremilast Subjects as Treated, listed as APR) was -2.14 kg and -2.14 ± 4.605 kg and the “Weight % Change Category 0%, n (%)” value (30 mg BID, Weeks 0-16, m = 857) was 111 (13.0) n (%). For the same molecule, the “Weight % Change Category <−20%, n (%)” value (30 mg BID, Weeks 0-16, m = 857) was 0 n (%), the “Weight % Change Category >0% to ≦5%, n (%)” value (30 mg BID, Weeks 0-16, m = 857) was 266 (31.0) n (%) and the “Weight % Change Category >5% to ≦10%, n (%)” value (30 mg BID, Weeks 0-16, m = 857) was 10 (1.2) n (%). The “Weight % Change Category >10% to ≦20%, n (%)” value (30 mg BID, Weeks 0-16, m = 857) was 1 (0.1) n (%), the “Weight % Change Category >20%, n (%)” value (30 mg BID, Weeks 0-16, m = 857) was 3 (0.4) n (%) and the “Weight % Change Category ≧−5% to <0%, n (%)” value (30 mg BID, Weeks 0-16, m = 857) was 424 (49.5) n (%). The “Weight % Change Category ≧−10% to <−5%, n (%)” value (30 mg BID, Weeks 0-16, m = 857) was 35 (4.1) n (%), the “Weight % Change Category ≧−20% to <−10%, n (%)” value (30 mg BID, Weeks 0-16, m = 857) was 7 (0.8) n (%) and the “observed weight loss of greater than 10%, subjects n (%)” value (30 mg BID) was 7 (0.8%) n (%). The “percentage of subjects with weight change of -10% to <−5%” value (30 mg BID) was 4.1%, the “weight decrease reported, subjects n (%)” value (all subjects who received apremilast) was 25 (1.3%) n (%) and the “body weight of the majority of subjects” value (regardless of duration of exposure) was “maintained their body weight within 0% and 5% of baseline”.
